Source: the supplement of paper PMC10307832

Assays:
Assay in all cases: relative viability (nuclei count vs DMSO), 5 days (fraction); higher = more cells survive
[1] = test system: 201T
In short: (§1)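 A single step with final 0.05% Triton X-100, 1% formaldehyde and 1 ug/ml Hoechst fixed the cells and stained nuclei 5 days after treatment. Lung cancer cell lines in 1536-well plates had been treated by pin tool the day after seeding with one drug alone or a fixed anchor-drug dose plus five library-drug doses (not always all listed) in √10 steps, and nuclei were counted on 4× images. Relative viability is the ratio of nuclei in treated wells to nuclei in vehicle wells, taken as the median of duplicate plates.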

[2] = test system: ABC-1
In short: as §1

[3] = test system: CAL-12T
In short: as §1

[4] = test system: EMC-BAC-2
In short: as §1

[5] = test system: H3255
In short: as §1

[6] = test system: HOP-62
In short: as §1

[7] = test system: LK-2
In short: as §1

[8] = test system: LXF-289
In short: as §1

[9] = test system: NCI-H1651
In short: as §1

[10] = test system: NCI-H1734
In short: as §1

[11] = test system: NCI-H1755
In short: as §1

[12] = test system: NCI-H2009
In short: as §1

[13] = test system: NCI-H2087
In short: as §1

[14] = test system: NCI-H2126
In short: as §1

[15] = test system: NCI-H2170
In short: as §1

[16] = test system: NCI-H322M
In short: as §1

[17] = test system: NCI-H441
In short: as §1

[18] = test system: NCI-H522
In short: as §1

[19] = test system: NCI-H596
In short: as §1

[20] = test system: NCI-H647
In short: as §1

[21] = test system: SW 900
In short: as §1

[22] = test system: NCI-H1563
In short: as §1

**Q.** Which results are given for COCC1(CO)C(=O)C2CCN1CC2 (centres undefined) [PRIMA-1MET] + O=C(CCCCCCC(=O)Nc1ccccc1)NO [Vorinostat] (partner 1 µM)?
**A.** relative viability ([1]; first compound 0.2 µM): 1.15; relative viability ([1]; first compound 0.6325 µM): 0.676; relative viability ([1]; first compound 2 µM): 0.797; relative viability ([1]; first compound 6.325 µM): 0.991; relative viability ([1]; first compound 20 µM): 0.98; relative viability ([2]; first compound 0.2 µM): 1.01; relative viability ([2]; first compound 2 µM): 1.09; relative viability ([2]; first compound 6.325 µM): 1.11; relative viability ([2]; first compound 20 µM): 0.262; relative viability ([3]; first compound 0.2 µM): 0.78; relative viability ([3]; first compound 0.6325 µM): 0.694; relative viability ([3]; first compound 2 µM): 0.637; relative viability ([3]; first compound 6.325 µM): 0.589; relative viability ([3]; first compound 20 µM): 0.0657; relative viability ([4]; first compound 0.2 µM): 0.582; relative viability ([4]; first compound 0.6325 µM): 0.36; relative viability ([4]; first compound 2 µM): 0.335; relative viability ([4]; first compound 6.325 µM): 0.527; relative viability ([4]; first compound 20 µM): 0.271; relative viability ([5]; first compound 0.2 µM): 0.745; relative viability ([5]; first compound 0.6325 µM): 0.779; relative viability ([5]; first compound 2 µM): 0.809; relative viability ([5]; first compound 6.325 µM): 0.901; relative viability ([5]; first compound 20 µM): 0.656; relative viability ([6]; first compound 0.2 µM): 0.59; relative viability ([6]; first compound 0.6325 µM): 0.445; relative viability ([6]; first compound 2 µM): 0.488; relative viability ([6]; first compound 6.325 µM): 0.623; relative viability ([6]; first compound 20 µM): 0.245; relative viability ([7]; first compound 0.2 µM): 0.181; relative viability ([7]; first compound 0.6325 µM): 0.255; relative viability ([7]; first compound 2 µM): 0.166; relative viability ([7]; first compound 6.325 µM): 0.325; relative viability ([7]; first compound 20 µM): 0.0975; relative viability ([8]; first compound 0.2 µM): 0.864; relative viability ([8]; first compound 0.6325 µM): 0.628; relative viability ([8]; first compound 2 µM): 0.79; relative viability ([8]; first compound 6.325 µM): 0.796; relative viability ([8]; first compound 20 µM): 0.745; relative viability ([9]; first compound 0.2 µM): 0.563; relative viability ([9]; first compound 0.6325 µM): 0.188; relative viability ([9]; first compound 2 µM): 0.458; relative viability ([9]; first compound 6.325 µM): 0.617; relative viability ([9]; first compound 20 µM): 0.564; relative viability ([10]; first compound 0.2 µM): 1.08; relative viability ([10]; first compound 0.6325 µM): 0.718; relative viability ([10]; first compound 2 µM): 0.777; relative viability ([10]; first compound 6.325 µM): 0.536; relative viability ([10]; first compound 20 µM): 0.0676; relative viability ([11]; first compound 0.2 µM): 0.944; relative viability ([11]; first compound 0.6325 µM): 0.765; relative viability ([11]; first compound 2 µM): 0.721; relative viability ([11]; first compound 6.325 µM): 0.748; relative viability ([11]; first compound 20 µM): 0.663; relative viability ([12]; first compound 0.2 µM): 0.752; relative viability ([12]; first compound 0.6325 µM): 0.801; relative viability ([12]; first compound 2 µM): 0.668; relative viability ([12]; first compound 6.325 µM): 0.5; relative viability ([12]; first compound 20 µM): 0.381; relative viability ([13]; first compound 0.6325 µM): 0.479; relative viability ([13]; first compound 2 µM): 0.604; relative viability ([13]; first compound 6.325 µM): 0.477; relative viability ([13]; first compound 20 µM): 0.336; relative viability ([14]; first compound 0.2 µM): 0.784; relative viability ([14]; first compound 0.6325 µM): 0.796; relative viability ([14]; first compound 2 µM): 0.606; relative viability ([14]; first compound 6.325 µM): 0.765; relative viability ([14]; first compound 20 µM): 0.788; relative viability ([15]; first compound 0.2 µM): 1.05; relative viability ([15]; first compound 0.6325 µM): 0.801; relative viability ([15]; first compound 2 µM): 0.721; relative viability ([15]; first compound 6.325 µM): 0.795; relative viability ([15]; first compound 20 µM): 0.774; relative viability ([16]; first compound 0.2 µM): 1.05; relative viability ([16]; first compound 0.6325 µM): 0.806; relative viability ([16]; first compound 6.325 µM): 0.994; relative viability ([16]; first compound 20 µM): 0.837; relative viability ([17]; first compound 0.2 µM): 0.689; relative viability ([17]; first compound 0.6325 µM): 0.6; relative viability ([17]; first compound 2 µM): 0.887; relative viability ([17]; first compound 6.325 µM): 0.96; relative viability ([17]; first compound 20 µM): 0.553; relative viability ([18]; first compound 0.2 µM): 0.724; relative viability ([18]; first compound 0.6325 µM): 0.923; relative viability ([18]; first compound 2 µM): 0.733; relative viability ([18]; first compound 6.325 µM): 0.83; relative viability ([18]; first compound 20 µM): 0.213; relative viability ([19]; first compound 0.2 µM): 0.694; relative viability ([19]; first compound 0.6325 µM): 0.589; relative viability ([19]; first compound 2 µM): 0.421; relative viability ([19]; first compound 6.325 µM): 0.732; relative viability ([19]; first compound 20 µM): 0.147; relative viability ([20]; first compound 0.2 µM): 0.849; relative viability ([20]; first compound 0.6325 µM): 0.444; relative viability ([20]; first compound 2 µM): 0.549; relative viability ([20]; first compound 6.325 µM): 0.538; relative viability ([20]; first compound 20 µM): 0.596; relative viability ([21]; first compound 0.2 µM): 0.58; relative viability ([21]; first compound 0.6325 µM): 0.427; relative viability ([21]; first compound 6.325 µM): 0.504; relative viability ([21]; first compound 20 µM): 0.129

**Q.** Which results are given for COCC1(CO)C(=O)C2CCN1CC2 (centres undefined) [PRIMA-1MET] + C[C@]1(O)C[C@@H](c2nc(-c3ccc4ccc(-c5ccccc5)nc4c3)c3c(N)nccn32)C1 [Linsitinib] (partner 1 µM)?
**A.** relative viability ([1]; first compound 0.2 µM): 1.11; relative viability ([1]; first compound 0.6325 µM): 1.05; relative viability ([1]; first compound 2 µM): 0.934; relative viability ([1]; first compound 6.325 µM): 1.11; relative viability ([1]; first compound 20 µM): 1; relative viability ([2]; first compound 0.2 µM): 0.899; relative viability ([2]; first compound 0.6325 µM): 0.958; relative viability ([2]; first compound 2 µM): 0.89; relative viability ([2]; first compound 6.325 µM): 0.833; relative viability ([2]; first compound 20 µM): 0.519; relative viability ([3]; first compound 0.2 µM): 0.725; relative viability ([3]; first compound 0.6325 µM): 0.733; relative viability ([3]; first compound 2 µM): 0.745; relative viability ([3]; first compound 6.325 µM): 0.85; relative viability ([3]; first compound 20 µM): 0.543; relative viability ([4]; first compound 0.2 µM): 0.843; relative viability ([4]; first compound 0.6325 µM): 0.822; relative viability ([4]; first compound 2 µM): 0.784; relative viability ([4]; first compound 6.325 µM): 0.821; relative viability ([4]; first compound 20 µM): 0.817; relative viability ([5]; first compound 0.2 µM): 1.13; relative viability ([5]; first compound 0.6325 µM): 1.01; relative viability ([5]; first compound 2 µM): 0.8; relative viability ([5]; first compound 6.325 µM): 1.01; relative viability ([5]; first compound 20 µM): 0.918; relative viability ([6]; first compound 0.2 µM): 1.08; relative viability ([6]; first compound 0.6325 µM): 0.976; relative viability ([6]; first compound 2 µM): 0.9; relative viability ([6]; first compound 6.325 µM): 0.987; relative viability ([6]; first compound 20 µM): 0.746; relative viability ([7]; first compound 0.2 µM): 0.624; relative viability ([7]; first compound 0.6325 µM): 0.554; relative viability ([7]; first compound 2 µM): 0.237; relative viability ([7]; first compound 6.325 µM): 0.224; relative viability ([7]; first compound 20 µM): 0.103; relative viability ([8]; first compound 0.2 µM): 1.02; relative viability ([8]; first compound 0.6325 µM): 0.958; relative viability ([8]; first compound 2 µM): 1.04; relative viability ([8]; first compound 6.325 µM): 0.999; relative viability ([8]; first compound 20 µM): 0.89; relative viability ([22]; first compound 0.2 µM): 1.25; relative viability ([22]; first compound 0.6325 µM): 1.14; relative viability ([22]; first compound 2 µM): 1.15; relative viability ([22]; first compound 6.325 µM): 1.23; relative viability ([22]; first compound 20 µM): 0.368; relative viability ([9]; first compound 0.2 µM): 1.13; relative viability ([9]; first compound 0.6325 µM): 0.981; relative viability ([9]; first compound 2 µM): 0.907; relative viability ([9]; first compound 6.325 µM): 0.955; relative viability ([9]; first compound 20 µM): 0.839; relative viability ([10]; first compound 0.2 µM): 0.972; relative viability ([10]; first compound 0.6325 µM): 0.808; relative viability ([10]; first compound 2 µM): 0.824; relative viability ([10]; first compound 6.325 µM): 0.818; relative viability ([10]; first compound 20 µM): 0.51; relative viability ([11]; first compound 0.2 µM): 0.979; relative viability ([11]; first compound 0.6325 µM): 0.946; relative viability ([11]; first compound 2 µM): 0.937; relative viability ([11]; first compound 6.325 µM): 1.02; relative viability ([11]; first compound 20 µM): 0.983; relative viability ([12]; first compound 0.2 µM): 1.17; relative viability ([12]; first compound 0.6325 µM): 1.09; relative viability ([12]; first compound 2 µM): 1.22; relative viability ([12]; first compound 6.325 µM): 1.16; relative viability ([12]; first compound 20 µM): 0.693; relative viability ([13]; first compound 0.2 µM): 1.07; relative viability ([13]; first compound 0.6325 µM): 0.85; relative viability ([13]; first compound 2 µM): 0.875; relative viability ([13]; first compound 6.325 µM): 1.24; relative viability ([13]; first compound 20 µM): 0.691; relative viability ([14]; first compound 0.2 µM): 0.726; relative viability ([14]; first compound 0.6325 µM): 0.692; relative viability ([14]; first compound 2 µM): 0.636; relative viability ([14]; first compound 6.325 µM): 0.732; relative viability ([14]; first compound 20 µM): 0.67; relative viability ([16]; first compound 0.2 µM): 0.932; relative viability ([16]; first compound 6.325 µM): 0.942; relative viability ([16]; first compound 20 µM): 0.862; relative viability ([17]; first compound 0.2 µM): 0.556; relative viability ([17]; first compound 0.6325 µM): 0.517; relative viability ([17]; first compound 2 µM): 0.458; relative viability ([17]; first compound 6.325 µM): 0.524; relative viability ([17]; first compound 20 µM): 0.24; relative viability ([19]; first compound 0.2 µM): 1.29; relative viability ([19]; first compound 0.6325 µM): 0.894; relative viability ([19]; first compound 2 µM): 0.972; relative viability ([19]; first compound 6.325 µM): 1.09; relative viability ([19]; first compound 20 µM): 1.14; relative viability ([20]; first compound 0.2 µM): 1.42; relative viability ([20]; first compound 0.6325 µM): 1.16; relative viability ([20]; first compound 2 µM): 1.18; relative viability ([20]; first compound 6.325 µM): 1.42; relative viability ([20]; first compound 20 µM): 1.18
